Measurements from patent US20150238488A1, “DRUG COMPOSITION FOR TREATING TUMORS AND APPLICATION THEREOF” (priority 2012, published 2015).
Read-outs that look alike come from different tables or passages of the source.

Tests used:
[1] = test system: KCL-22 (chronic myeloid leukemia cell line); assay: MTT cell viability, 72 h, single drugs and combination; assay type: cell-based; conditions: Homo sapiens, read-out: CV(%) cell viability
Excerpt: (§1) Leukemia cell lines: K562 (chronic myeloid leukemia cell line), K562/ADR (doxorubicin(ADM)-resistant human chronic granulocytic leukemia cell line), KCL-22 (chronic myeloid leukemia cell line), KCL-22 M (human chronic granulocytic leukemia cell line mutant), CML-BC (KCL-28 patient's cells), all of which are donated by Cancer Research Institute of Zhejiang University, China; KU812 (chronic myeloid leukemia cell line), purchased from Fuxiang Bio-tech Co. Ltd., Shanghai, China.
(§2) 1. […] Well-growing leukemia cells were obtained and inoculated into wells of a 96-well cell culture plate at 5000 cells/well. Respective compounds of various concentrations were added, mixed uniformly, and incubated (5% CO2) at 37° C. for 72 hours. Then the cell viability was determined by the MTT method.
(§3) 2. Determine the inhibitory effects of bisbenzylisoquinoline in combination with IM on leukemia cells in vitro. The pretreatment of the cells was the same as in a). The control group was not treated with the compound while administered. In the experimental group, compounds were added respectively to the concentration under which the IC50 (μg/mL) of the compounds in step 1 achieves. As to the combination group, the two compounds were added together into the same group of wells. After 72 hours of incubation, the MTT method was used for the determination of cell viability. The cell viability of the control group was set to 100% in this experiment, and the BBM/TTD, IM single drug and combined effects on cell viability (100%) were calculated.

[2] = test system: KU812 (chronic myeloid leukemia cell line); assay: as above; assay type: cell-based; conditions: Homo sapiens, KU812, 72 h; read-out: CV(%) cell viability
Excerpt: as §1, §2, §3

[3] = test system: KCL-22 M (human chronic granulocytic leukemia cell line mutant); assay: as above; assay type: cell-based; conditions: read-out: CV(%) cell viability
Excerpt: as §1, §2, §3

[4] = test system: K562/ADR (doxorubicin(ADM)-resistant human chronic granulocytic leukemia cell line); assay: as above; assay type: cell-based; conditions: read-out: CV(%) cell viability
Excerpt: as §1, §2, §3

[5] = test system: K562 (chronic myeloid leukemia cell line); assay: as above; assay type: cell-based; conditions: Homo sapiens, read-out: CV(%) cell viability
Excerpt: as §1, §2, §3

[6] = test system: CML-BC (KCL-28 patient's cells); assay: as above; assay type: cell-based; conditions: read-out: CV(%) cell viability
Excerpt: as §1, §2, §3

[7] = Experiment 2-1: body weight of tumor-bearing nude mice; assay type: in vivo, BALB/c-nu nude mice; conditions: 100 mg/kg each drug, intragastric, 2 times a day, 14 days, x ± s, n=3; for Body weight (g) Final: final (Day 23)
Method: (§4) Under sterile conditions, the above tumor cells were collected in the logarithmic growth phase, and were injected by subcutaneous injection in an amount of 1×10^7/0.2 mL/nude mice (cell viability>95%) into the right subaxillary of the nude mice, thus establishing leukemia transplated tumor models of in nude mice. The mice were administered from the third day after the inoculation. The treated group was intragastrically administered at the experimentally designed amount, the negative control group was intragastrically administered with sterile water, and the positive control group was intragastrically administered with IM. Each mouse was intragastrically administered in 0.4 ml each time and 2 times a day. The administrations were successive for 14 days. The day before administration was deemed as Day 0 and the body weight and tumor size of the mice were determined every 5 days to produce a dynamic plot on body weight and tumor growth. On Day 23, the mice were sacrificed and the tumors were taken out and weighed. The tumor inhibition rate (%) was calculated after the effect of the medicament based on a tumor inhibition rate of the control group being zero.

[8] = test system: human leukemia Jurkat cells; conditions: cited from earlier work
[9] = test system: peripheral blood leucocyte of a normal human being; conditions: drug concentration 0.5 μg/mL to 10 μg/mL; cited from earlier work
[10] = test system: K562/ADR leukemia transplanted tumor; assay: Experiment 2-1: inhibition of leukemia transplanted tumor in nude mice (BBM, IM); assay type: in vivo, BALB/c-nu nude mice; conditions: K562/ADR xenograft, 100 mg/kg each drug, intragastric, 2 times a day, 14 days, Day 23; for Tumor inhibition rate (%): control = 0; for Tumor weight: x ± s
Method: Leukemia cell lines: K562/ADR (ADM-resistant human chronic granulocytic leukemia cell line);
(§5) Animals: BALB/c-nu nude mice
as §4

[11] = test system: K562/ADR leukemia transplanted tumor; assay: Experiment 2-2: inhibition of leukemia transplanted tumor in nude mice (TTD, IM); assay type: in vivo, BALB/c-nu nude mice; conditions: K562/ADR xenograft, 50 mg/kg each drug, intragastric, 2 times a day, 14 days, Day 20; for Tumor inhibition rate (%): control = 0; for Tumor weight: x ± s
Method: Leukemia cell lines: K562/ADR (ADM-resistant human chronic myeloid leukemia cell line);
as §5
as §4, with “the sixth” for “the third”, “Day 20,” for “Day 23,”, “tumors are” for “tumors were”

[12] = Experiment 2-2: body weight of tumor-bearing nude mice; assay type: in vivo, BALB/c-nu nude mice; conditions: 50 mg/kg each drug, intragastric, 2 times a day, 14 days, x ± s, n=3; for Body weight (g) Final: final (Day 20)
Method: as §4, with “the sixth” for “the third”, “Day 20,” for “Day 23,”, “tumors are” for “tumors were”

COc1cc2c3cc1Oc1c(OC)c(OC)cc4c1[C@@H](Cc1ccc(O)c(c1)Oc1ccc(cc1)C[C@@H]3N(C)CC2)N(C)CC4 [BBM, 6,6′,7-trimethoxy-2,2′-dimethylberbaman-12-ol]
viability at 6.5 µg/mL ([1]; KCL-22, BBM 6.5 μg/mL (IC50 dose), 72 h, MTT): 50% | viability at 1.5 µg/mL [2]: 51.6% | viability at 1.7 µg/mL ([3]; KCL-22, 72 h): 52.4% | viability at 1.5 µg/mL ([4]; K562/Adr): 46.3% | viability at 1.6 µg/mL ([5]; K562, BBM 1.6 μg/mL (IC50 dose), 72 h, MTT): 44.5% | viability at 1.5 µg/mL [6]: 54.4% | Body weight (g) Final [7]: 18.57 ± 2.28 g | Body weight (g) Initial [7]: 21.23 ± 0.23 g | cell viability ([8]; drug concentration 0.5 μg/mL): 93.69% | cell viability ([8]; drug concentration 10 μg/mL): 14.85% | cytotoxic effect [9]: no evident cytotoxic effect | Tumor inhibition rate (%) [10]: 63.66% | Tumor weight [10]: 0.25 ± 0.34 g

Cc1ccc(NC(=O)c2ccc(CN3CCN(C)CC3)cc2)cc1Nc1nccc(-c2cccnc2)n1 [IM]
viability at 0.05 µg/mL ([1]; KCL-22, 72 h): 51.1% | viability at 0.08 µg/mL ([1]; KCL-22, IM 0.08 μg/mL (IC50 dose), 72 h, MTT): 48.5% | viability at 0.01 µg/mL [2]: 56.7% | viability at 0.03 µg/mL [2]: 53.3% | viability at 3.27 µg/mL ([3]; KCL-22 M, IM 3.27 μg/mL (IC50 dose), 72 h, MTT): 48% | viability at 0.16 µg/mL ([4]; K562/ADR, IM 0.16 μg/mL (IC50 dose), MTT): 42.5% | viability at 0.2 µg/mL ([4]; K562/Adr): 42.3% | viability at 0.02 µg/mL ([5]; K562, 72 h): 57.9% | viability at 0.03 µg/mL ([5]; K562, 72 h): 44.2% | viability at 0.01 µg/mL [6]: 57.1% | viability at 0.02 µg/mL [6]: 57.1% | Body weight (g) Final [7]: 17.37 ± 2.75 g | Body weight (g) Initial [7]: 21.00 ± 0.12 g | Tumor inhibition rate (%) [11]: 12.26% | Tumor weight [11]: 0.81 ± 0.52 g | Body weight (g) Final [12]: 18.40 ± 0.52 g | Body weight (g) Initial [12]: 21.47 ± 0.21 g | Tumor inhibition rate (%) [10]: 71.98% | Tumor weight [10]: 0.19 ± 0.27 g

COc1ccc2cc1Oc1ccc(cc1)C[C@H]1c3cc(c(OC)cc3CCN1C)Oc1c(OC)c(OC)cc3c1[C@H](C2)N(C)CC3 [TTD, 6,6′,7,12-tetramethoxy-2,2′dimethylberbamine]
Tumor inhibition rate (%) [11]: 10.18% | Tumor weight [11]: 0.83 ± 0.76 g | Body weight (g) Final [12]: 18.93 ± 1.53 g | Body weight (g) Initial [12]: 21.30 ± 0.10 g
